# Measured values published in patent publication US20160002247A1, “8-SUBSTITUTED IMIDAZOPYRIMIDINONE DERIVATIVE HAVING AUTOTAXIN INHIBITORY ACTIVITY” (THE UNIVERSITY OF TOKYO, priority 2013, published 2016).
# Biological target: T1, Human autotaxin enzyme (Homo sapiens, UniProt Q13822)
# T1 construct: purchased R&D System
# Experiment: Evaluation of autotaxin inhibitor, Method C (Test Example 3): 18:0 Lyso PC, choline assay, Resorufin fluorescence
# Assay type: biochemical
# Settings: Assay Method C (Test Example 3), human autotaxin, 18:0 Lyso PC substrate; read-out: Inhibitory Activity (autotaxin enzyme inhibitory activity, IC50 class)
# Summary of the method: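 Human autotaxin in Tris-HCl pH 7.5, 150 mM NaCl, 5 mM MgCl2, 0.05% Triton X-100 reacted 2 h at room temperature with 18:0 Lyso PC (200 μM solution added). Released choline detected via choline oxidase/peroxidase/Amplex-type reagent, resorufin fluorescence (ex 531/em 598 nm); inhibition vs no-compound and no-enzyme controls, concentration-response curve.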
row,SMILES,IC50 [nM]
1,Cn1c(N2CCC[C@H]2C(=O)N[C@H](C(=O)O)C(C)(C)C)cc(=O)n2cc(-c3ccc(Cl)cc3)nc12 [Compound 770],100 to 1000
2,C[C@H](NC(=O)[C@@H]1CCCN1c1cc(=O)n2cc(-c3ccc(Cl)cc3)nc2n1C)C(=O)O [Compound 771],100 to 1000
3,Cn1c(N2C[C@H](O)C[C@H]2C(=O)N[C@@H](Cc2ccccc2)C(=O)O)cc(=O)n2cc(-c3ccc(Cl)cc3)nc12 [Compound 772],100 to 1000
4,Cn1c(N2C[C@H](O)C[C@H]2C(=O)NCC(=O)O)cc(=O)n2cc(-c3ccc(Cl)cc3)nc12 [Compound 773],> 1000
5,Cn1c(N2C[C@H](O)C[C@H]2C(=O)N[C@H](C(=O)O)C(C)(C)C)cc(=O)n2cc(-c3ccc(Cl)cc3)nc12 [Compound 774],10 to 100
6,CCCCCn1c(N2C[C@@H](O)C[C@H]2C(=O)N[C@@H](Cc2ccccc2)C(=O)O)cc(=O)n2cc(-c3ccc(Cl)cc3)nc12 [Compound 775],< 10
7,CCCCCn1c(N2C[C@@H](O)C[C@H]2C(=O)NCC(=O)O)cc(=O)n2cc(-c3ccc(Cl)cc3)nc12 [Compound 776],< 10
8,CCCCCn1c(N2C[C@@H](O)C[C@H]2C(=O)N[C@@H](CCc2ccccc2)C(=O)O)cc(=O)n2cc(-c3ccc(Cl)cc3)nc12 [Compound 777],< 10
9,CCCCCn1c(N2C[C@@H](O)C[C@H]2C(=O)N[C@H](C(=O)O)C(C)(C)C)cc(=O)n2cc(-c3ccc(Cl)cc3)nc12 [Compound 778],< 10
10,CCCCCn1c(N2C[C@@H](O)C[C@H]2C(=O)N[C@@H](C)C(=O)O)cc(=O)n2cc(-c3ccc(Cl)cc3)nc12 [Compound 779],< 10

# Same assay, conditions: Assay Method C, human autotaxin, 18:0 Lyso PC substrate; read-out: Inhibitory Activity
row,SMILES,IC50 [nM]
1,Cn1c(N2CCC[C@H]2C(=O)NC(C)(C)C(=O)O)cc(=O)n2cc(-c3ccc(Cl)cc3)nc12 [Compound 780],100 to 1000
2,Cn1c(N2C[C@H](O)C[C@H]2C(=O)NC(C)(C)C(=O)O)cc(=O)n2cc(-c3ccc(Cl)cc3)nc12 [Compound 781],> 1000
3,C[C@H](NC(=O)[C@@H]1C[C@@H](O)CN1c1cc(=O)n2cc(-c3ccc(Cl)cc3)nc2n1C)C(=O)O [Compound 782],100 to 1000
4,CCCCCn1c(N2CCC[C@H]2C(=O)Nc2nn[nH]n2)cc(=O)n2cc(-c3ccc(Cl)cc3)nc12 [Compound 783],10 to 100
5,CCCCCn1c(N2CCC[C@H]2C(=O)Nc2ccc(-c3nn[nH]n3)cc2)cc(=O)n2cc(-c3ccc(Cl)cc3)nc12 [Compound 784],100 to 1000
6,CCCCCn1c(N2CCC[C@H]2C(=O)NCC(O)C(F)(F)F)cc(=O)n2cc(-c3ccc(Cl)cc3)nc12 (some centres unmarked) [Compound 785],100 to 1000
7,CCCCCn1c(N2CCC[C@H]2C(=O)NCC(O)CC(F)(F)F)cc(=O)n2cc(-c3ccc(Cl)cc3)nc12 (some centres unmarked) [Compound 786],100 to 1000
8,CCCCCn1c(N2CCC[C@H]2C(=O)Nc2cccc(-c3nn[nH]n3)c2)cc(=O)n2cc(-c3ccc(Cl)cc3)nc12 [Compound 787],100 to 1000
9,CCCCCn1c(N2CCC[C@H]2C(=O)Nc2cc(O)[nH]n2)cc(=O)n2cc(-c3ccc(Cl)cc3)nc12 [Compound 788],> 1000
10,CCCCCn1c(N2CCC[C@H]2C(=O)NC(C(N)=O)c2ccccc2)cc(=O)n2cc(-c3ccc(Cl)cc3)nc12 (some centres unmarked) [Compound 789],10 to 100
11,CCCCCn1c(N2CCC[C@H]2C(=O)NCc2c[nH]nn2)cc(=O)n2cc(-c3ccc(Cl)cc3)nc12 [Compound 790],< 10
12,CCCCCn1c(N2CCC[C@H]2C(=O)Nc2ccccc2-c2nn[nH]n2)cc(=O)n2cc(-c3ccc(Cl)cc3)nc12 [Compound 791],100 to 1000
13,CCCCCn1c(N2CCC[C@H]2C(=O)NC[C@H](O)C(F)(F)F)cc(=O)n2cc(-c3ccc(Cl)cc3)nc12 [Compound 792],100 to 1000
14,CCCCCn1c(N2CCC[C@H]2C(=O)Nc2ccc(O)c(OC)c2)cc(=O)n2cc(-c3ccc(Cl)cc3)nc12 [Compound 793],100 to 1000
15,CCCCCn1c(N2CCC[C@H]2C(=O)Nc2nonc2OC)cc(=O)n2cc(-c3ccc(Cl)cc3)nc12 [Compound 794],10 to 100
16,CCCCCn1c(N2CCC[C@H]2C(=O)NCc2nn[nH]n2)cc(=O)n2cc(-c3ccc(Cl)cc3)nc12 [Compound 795],< 10
17,CCCCCn1c(N2CCC[C@H]2C(=O)Nc2ccc(Oc3nn[nH]n3)cc2)cc(=O)n2cc(-c3ccc(Cl)cc3)nc12 [Compound 796],100 to 1000
18,CCCCCn1c(N2CCC[C@H]2C(=O)N[C@@H](CC(C)C)C(N)=O)cc(=O)n2cc(-c3ccc(Cl)cc3)nc12 [Compound 797],10 to 100
19,CCCCCn1c(N2CCC[C@H]2C(=O)Nc2ccc(OC)c(O)c2)cc(=O)n2cc(-c3ccc(Cl)cc3)nc12 [Compound 798],100 to 1000
20,CCCCCn1c(N2CCC[C@H]2C(=O)Nc2cc(O)no2)cc(=O)n2cc(-c3ccc(Cl)cc3)nc12 [Compound 799],10 to 100

row,SMILES,IC50 [nM]
1,CCCCCn1c(N2CCC[C@H]2C(=O)NC(C)C(O)C(F)(F)F)cc(=O)n2cc(-c3ccc(Cl)cc3)nc12 (some centres unmarked) [Compound 800],10 to 100
2,CCCCCn1c(N2CCC[C@H]2C(=O)Oc2cc(N)ccc2OC)cc(=O)n2cc(-c3ccc(Cl)cc3)nc12 [Compound 801],100 to 1000
3,CCCCCn1c(N2CCCCC2CC)cc(=O)n2cc(-c3ccc(Cl)cc3)nc12 (centres unmarked) [Compound 802],> 1000
4,CCCCCn1c(N2CCCCC2c2ccccc2)cc(=O)n2cc(-c3ccc(Cl)cc3)nc12 (centres unmarked) [Compound 803],> 1000
5,CCCCCn1c(N2CCCC(C)(C)C2)cc(=O)n2cc(-c3ccc(Cl)cc3)nc12 [Compound 804],> 1000
6,CCCCCn1c(N2CCCCC2CCN2CCOCC2)cc(=O)n2cc(-c3ccc(Cl)cc3)nc12 (centres unmarked) [Compound 805],100 to 1000
7,CCCCCn1c(N2CCCCC2CNC(=O)OC(C)(C)C)cc(=O)n2cc(-c3ccc(Cl)cc3)nc12 (centres unmarked) [Compound 806],> 1000
8,C#CCNC(=O)C1CCCCN1c1cc(=O)n2cc(-c3ccc(Cl)cc3)nc2n1CCCCC (centres unmarked) [Compound 807],10 to 100
9,CCCCCn1c(N2CCCC[C@@H]2C)cc(=O)n2cc(-c3ccc(Cl)cc3)nc12 [Compound 808],> 1000
10,CCCCCn1c(N2CCCC(C(=O)O)C2C)cc(=O)n2cc(-c3ccc(Cl)cc3)nc12 (centres unmarked) [Compound 809],100 to 1000
11,CCCCCn1c(N2CC3CC3C2)cc(=O)n2cc(-c3ccc(Cl)cc3)nc12 (centres unmarked) [Compound 810],100 to 1000
12,CCCCCn1c(N2CCC[C@@H](C)C2)cc(=O)n2cc(-c3ccc(Cl)cc3)nc12 [Compound 811],> 1000
13,CCCCCn1c(N2CCC[C@H](C)C2)cc(=O)n2cc(-c3ccc(Cl)cc3)nc12 [Compound 812],100 to 1000
14,CCCCCn1c(N2CCC[C@@H](c3ccccc3)C2)cc(=O)n2cc(-c3ccc(Cl)cc3)nc12 [Compound 813],> 1000
15,CCCCCn1c(N2CCCC[C@H]2C)cc(=O)n2cc(-c3ccc(Cl)cc3)nc12 [Compound 814],100 to 1000
16,CCCCCn1c(N2CCC[C@H]2C(=O)NC(C(=O)O)C(F)(F)F)cc(=O)n2cc(-c3ccc(Cl)cc3)nc12 (some centres unmarked) [Compound 815],< 10
17,CCCCCn1c(N2CCC[C@H]2C(=O)NCC(=O)OC)cc(=O)n2cc(-c3ccc(Cl)cc3)nc12 [Compound 816],10 to 100
18,CCCCCn1c(-c2ccc(C(=O)NCCNCCO)cc2)cc(=O)n2cc(-c3ccc(Cl)cc3)nc12 [Compound 817],< 10
19,Cn1cc(Cc2cccc(C(=O)O)c2)c(=O)n2cc(-c3ccc(Cl)cc3)nc12 [Compound 819],100 to 1000
20,CCCCCn1cc(Cc2cccc(C(=O)O)c2)c(=O)n2cc(-c3ccc(Cl)cc3)nc12 [Compound 820],10 to 100

row,SMILES,IC50 [nM]
1,CCOC(=O)c1cccc(Cc2cn(CCCCC#N)c3nc(-c4ccc(Cl)cc4)cn3c2=O)c1 [Compound 821],100 to 1000
2,CCOC(=O)c1cccc(Cc2cn(CC3CC3)c3nc(-c4ccc(Cl)cc4)cn3c2=O)c1 [Compound 822],> 1000
3,O=C(O)c1cccc(Cc2cn(CC3CC3)c3nc(-c4ccc(Cl)cc4)cn3c2=O)c1 [Compound 823],10 to 100
4,N#CCCCCn1cc(Cc2cccc(C(=O)O)c2)c(=O)n2cc(-c3ccc(Cl)cc3)nc12 [Compound 824],< 10
5,CCCCC(C(C)=O)n1cc(Cc2cccc(C(=O)O)c2)c(=O)n2cc(-c3ccc(Cl)cc3)nc12 (centres unmarked) [Compound 825],> 1000
6,O=C(O)c1cccc(Cc2cn(CCCC(F)(F)F)c3nc(-c4ccc(Cl)cc4)cn3c2=O)c1 [Compound 826],10 to 100
7,O=C(O)Cc1cn(CCCC(F)(F)F)c2nc(-c3ccc(Cl)cc3)cn2c1=O [Compound 827],> 1000
8,CCOC(=O)Cc1cn(CCCC(F)(F)F)c2nc(-c3ccc(Cl)cc3)cn2c1=O [Compound 828],> 1000
9,N#CCNC(=O)Cc1cn(CCCC(F)(F)F)c2nc(-c3ccc(Cl)cc3)cn2c1=O [Compound 829],100 to 1000
10,N#CCCNC(=O)Cc1cn(CCCC(F)(F)F)c2nc(-c3ccc(Cl)cc3)cn2c1=O [Compound 830],100 to 1000
11,CN(CCC#N)C(=O)Cc1cn(CCCC(F)(F)F)c2nc(-c3ccc(Cl)cc3)cn2c1=O [Compound 831],100 to 1000
12,N#CCCCNC(=O)Cc1cn(CCCC(F)(F)F)c2nc(-c3ccc(Cl)cc3)cn2c1=O [Compound 832],> 1000
13,O=C(Cc1cn(CCCC(F)(F)F)c2nc(-c3ccc(Cl)cc3)cn2c1=O)N(CCO)CCO [Compound 833],> 1000
14,CN(CC#N)C(=O)Cc1cn(CCCC(F)(F)F)c2nc(-c3ccc(Cl)cc3)cn2c1=O [Compound 834],100 to 1000
15,N#CNC(=O)Cc1cn(CCCC(F)(F)F)c2nc(-c3ccc(Cl)cc3)cn2c1=O [Compound 835],> 1000
16,CC1CCCCN1C(=O)Cc1cn(CCCC(F)(F)F)c2nc(-c3ccc(Cl)cc3)cn2c1=O (centres unmarked) [Compound 836],10 to 100
17,NC(=O)C1CCN(C(=O)Cc2cn(CCCC(F)(F)F)c3nc(-c4ccc(Cl)cc4)cn3c2=O)CC1 [Compound 837],> 1000
18,O=C(Cc1cn(CCCC(F)(F)F)c2nc(-c3ccc(Cl)cc3)cn2c1=O)N1CCC(O)CC1 [Compound 838],> 1000
